Source: PubChem BioAssay AID272 (DTP/NCI, 2004)
Records with an inconclusive call do not appear.

System: Lewis lung carcinoma i.m., BDF1 mice, T/C %
Test: NCI In Vivo Anticancer Drug Screen. Data for tumor model Lewis Lung Carcinoma (intramuscular) in B6D2F1 (BDF1) mice
In short: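 Value is the ratio of a treated-group measurement (T) to the matching vehicle-control measurement (C), using either survival or tumour size in mice bearing transplanted tumours.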

| SMILES | T/C (endpoint: mean tumor weight (est.), dose: 42.5 mg/kg/injection, schedule: Q01DX011 (ip), vehicle: saline, higher = larger tumour) | T/C (endpoint: mean tumor weight (est.), dose: 85.0 mg/kg/injection, schedule: Q01DX011 (ip), vehicle: saline, higher = larger tumour) | T/C (endpoint: median survival time, dose: 42.5 mg/kg/injection, schedule: Q01DX011 (ip), vehicle: saline, higher = longer survival) | T/C (endpoint: median survival time, dose: 85.0 mg/kg/injection, schedule: Q01DX011 (ip), vehicle: saline, higher = longer survival) | T/C (endpoint: median survival time, dose: 20.0 mg/kg/injection, schedule: Q01DX011 (oral), vehicle: other, higher = longer survival) | T/C (endpoint: median survival time, dose: 40.0 mg/kg/injection, schedule: Q01DX011 (oral), vehicle: other, higher = longer survival) |
| --- | --- | --- | --- | --- | --- | --- |
| CC(C)NCC(=O)c1ccc(O)c(O)c1 | 90 % of control | 93 % of control | 120 % of control | 90 % of control | – | – |
| COC(=O)Nc1nc2ccc(C3(c4ccc(F)cc4)OCCO3)cc2[nH]1 | – | – | – | – | 97 % of control | 97 % of control |
